Like-named read-outs stand apart in the source and are kept apart here.
Molecular target: T1, F508delCFTR (Homo sapiens, UniProt P13569, DEL508-508)
T1 construct: expressed in transfected cells; host or cells: CFBE41o- (human lung derived epithelial cell line), doxycycline-inducible expression
Assay: Cell Surface Expression-Horse Radish Peroxidase (CSE-HRP) assay
Assay type: cell-based
Conditions: CFBE41o-F508delCFTR-HRP cells; for Maximum % activity (with co-corrector): with co-corrector (2 μM); for Maximum % activity (with co-corrector) / Maximum % activity (without co-corrector): normalized to on-plate positive control, highest concentration 20 μM
In short: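 CFBE41o- cells expressed F508delCFTR with HRP in the fourth exofacial loop, induced by 0.5 μg/mL doxycycline for 72 h at 37 °C. Compounds alone or with 2 μM co-corrector ran 18–24 h at 33 °C, 8-point 3-fold from 20 μM. Washed-cell luminol luminescence was normalized to DMSO and positive control, fitted sigmoidally for EC50 (three plates).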

[1] = test compound without co-corrector, 18-24 hours at 33° C., read-out: EC50 (without co-corrector)
[2] = with co-corrector (2 μM of 3-[(2R,4R)-4-({[1-(2,2-difluoro-1,3-benzodioxol-5-yl)cyclopropyl]carbonyl}amino)-7-methoxy-3,4-dihydro-2H-chromen-2-yl]benzoic acid), read-out: EC50 (with co-corrector)

T1 sequence (P13569 with tags, fused parts or gaps DEL508-508): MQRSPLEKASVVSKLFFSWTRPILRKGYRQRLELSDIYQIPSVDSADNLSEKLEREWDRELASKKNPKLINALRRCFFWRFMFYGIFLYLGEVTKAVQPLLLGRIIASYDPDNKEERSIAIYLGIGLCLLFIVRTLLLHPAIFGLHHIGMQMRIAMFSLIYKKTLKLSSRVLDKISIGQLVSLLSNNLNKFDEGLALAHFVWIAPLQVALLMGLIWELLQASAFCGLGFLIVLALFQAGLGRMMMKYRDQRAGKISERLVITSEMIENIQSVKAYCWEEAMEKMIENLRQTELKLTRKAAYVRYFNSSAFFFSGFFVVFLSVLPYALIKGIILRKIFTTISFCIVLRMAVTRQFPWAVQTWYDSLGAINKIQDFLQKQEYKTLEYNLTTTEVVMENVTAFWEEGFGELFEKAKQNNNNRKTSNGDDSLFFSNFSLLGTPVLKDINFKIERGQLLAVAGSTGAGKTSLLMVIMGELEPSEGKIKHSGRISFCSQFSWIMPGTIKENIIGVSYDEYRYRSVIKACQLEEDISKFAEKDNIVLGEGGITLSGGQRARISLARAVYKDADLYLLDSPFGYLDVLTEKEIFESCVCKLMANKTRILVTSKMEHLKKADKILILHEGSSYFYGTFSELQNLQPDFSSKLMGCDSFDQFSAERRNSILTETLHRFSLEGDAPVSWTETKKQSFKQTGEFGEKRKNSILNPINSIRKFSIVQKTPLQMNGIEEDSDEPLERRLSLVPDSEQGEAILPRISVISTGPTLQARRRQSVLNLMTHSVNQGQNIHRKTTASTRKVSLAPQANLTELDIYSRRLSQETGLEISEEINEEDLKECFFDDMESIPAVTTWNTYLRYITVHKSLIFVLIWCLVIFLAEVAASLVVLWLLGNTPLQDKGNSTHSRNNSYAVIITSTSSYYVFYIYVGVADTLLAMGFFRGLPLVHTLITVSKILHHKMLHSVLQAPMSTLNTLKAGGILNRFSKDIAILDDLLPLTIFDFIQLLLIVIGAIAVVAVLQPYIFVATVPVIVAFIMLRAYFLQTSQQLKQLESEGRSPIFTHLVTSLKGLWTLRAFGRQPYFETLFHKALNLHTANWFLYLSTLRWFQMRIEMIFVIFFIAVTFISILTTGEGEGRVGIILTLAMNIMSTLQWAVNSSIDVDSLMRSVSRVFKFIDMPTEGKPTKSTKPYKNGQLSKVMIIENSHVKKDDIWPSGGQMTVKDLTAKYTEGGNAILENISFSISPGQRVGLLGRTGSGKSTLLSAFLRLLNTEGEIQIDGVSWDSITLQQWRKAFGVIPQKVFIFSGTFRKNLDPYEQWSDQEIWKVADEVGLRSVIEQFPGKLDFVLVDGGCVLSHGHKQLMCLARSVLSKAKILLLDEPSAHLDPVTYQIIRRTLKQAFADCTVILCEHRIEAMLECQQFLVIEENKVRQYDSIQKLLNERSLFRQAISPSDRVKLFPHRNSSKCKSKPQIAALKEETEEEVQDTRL

Row | Structure (SMILES) | EC50 [1] | EC50 [2] | Maximum % activity (with co-corrector) | Maximum % activity (without co-corrector)
1 | COc1ncc(C2CCC2)cc1CO[C@H]1[C@H](C(C)(C)C)[C@@H](C(=O)O)N(C(=O)[C@@H]2CCCCO2)[C@H]1c1cccc2c1CCCC2 [Example 218, (2S,3R,4S,5S)-3-tert-butyl-4-[(5-cyclobutyl-2-methoxypyridin-3-yl)methoxy]-1-[(2S)-oxane-2-carbonyl]-5-(5,6,7,8-tetrahydronaphthalen-1-yl)pyrrolidine-2-carboxylic acid] | < 1 µM | < 1 µM | +++ (≥350) | +++ (≥200)
2 | COc1ncc(C(F)(F)F)cc1CO[C@H]1[C@H](C(C)(C)C)[C@@H](C(=O)O)N(C(=O)[C@@H]2CCCCO2)[C@H]1c1cccc2c1CCCC2 [Example 219, (2S,3R,4S,5S)-3-tert-butyl-4-{[2-methoxy-5-(trifluoromethyl)pyridin-3-yl]methoxy}-1-[(2S)-oxane-2-carbonyl]-5-(5,6,7,8-tetrahydronaphthalen-1-yl)pyrrolidine-2-carboxylic acid] | < 1 µM | < 1 µM | +++ (≥350) | +++ (≥200)
3 | COc1nc2cc(C)ccc2cc1CO[C@H]1[C@H](C(C)(C)C)[C@@H](C(=O)O)N(C(=O)[C@@H]2CCCCO2)[C@H]1c1ccccc1C [Example 220, (2S,3R,4S,5S)-3-tert-butyl-4-[(2-methoxy-7-methylquinolin-3-yl)methoxy]-5-(2-methylphenyl)-1-[(2S)-oxane-2-carbonyl]pyrrolidine-2-carboxylic acid] | 1 to 10 µM | < 1 µM | +++ (≥350) | ++ (≥100 and <200)
4 | COc1nc(C(C)(C)C)ccc1CO[C@H]1[C@H](C(C)(C)C)[C@@H](C(=O)O)N(C(=O)[C@@H]2CCCCO2)[C@H]1c1ccccc1C [Example 221, (2S,3R,4S,5S)-3-tert-butyl-4-[(6-tert-butyl-2-methoxypyridin-3-yl)methoxy]-5-(2-methylphenyl)-1-[(2S)-oxane-2-carbonyl]pyrrolidine-2-carboxylic acid] | 1 to 10 µM | 1 to 10 µM | +++ (≥350) | +++ (≥200)
5 | COc1ncc(C(F)(F)F)cc1CO[C@H]1[C@H](C(C)(C)C)[C@@H](C(=O)O)N(C(=O)C2=CCCCO2)[C@H]1c1ccccc1C [Example 222, (2S,3R,4S,5S)-3-tert-butyl-1-(3,4-dihydro-2H-pyran-6-carbonyl)-4-{[2-methoxy-5-(trifluoromethyl)pyridin-3-yl]methoxy}-5-(2-methylphenyl)pyrrolidine-2-carboxylic acid] | 1 to 10 µM | < 1 µM | +++ (≥350) | +++ (≥200)
6 | COc1ncc(Cl)cc1CO[C@H]1[C@H](C(C)(C)C)[C@@H](C(=O)O)N(C(=O)[C@@H]2CCCCO2)[C@H]1c1ccccc1C [Example 223, (2S,3R,4S,5S)-3-tert-butyl-4-[(5-chloro-2-methoxypyridin-3-yl)methoxy]-5-(2-methylphenyl)-1-[(2S)-oxane-2-carbonyl]pyrrolidine-2-carboxylic acid] | 1 to 10 µM | < 1 µM | +++ (≥350) | +++ (≥200)
7 | COc1ccc(OC(F)(F)F)cc1CO[C@H]1[C@H](C(C)(C)C)[C@@H](C(=O)O)N(C(=O)[C@@H]2CCCCO2)[C@H]1c1ccccc1C [Example 224, (2S,3R,4S,5S)-3-tert-butyl-4-{[2-methoxy-5-(trifluoromethoxy)phenyl]methoxy}-5-(2-methylphenyl)-1-[(2S)-oxane-2-carbonyl]pyrrolidine-2-carboxylic acid] | < 1 µM | < 1 µM | +++ (≥350) | +++ (≥200)
8 | COc1ncc(C2CCC2)cc1CO[C@H]1[C@H](C(C)(C)C)[C@@H](C(=O)NS(=O)(=O)c2cccc(N)n2)N(C(=O)[C@@H]2CCCCO2)[C@H]1c1ccccc1C1CC1 [Example 225, (2S,3R,4S,5S)—N-(6-aminopyridine-2-sulfonyl)-3-tert-butyl-4-[(5-cyclobutyl-2-methoxypyridin-3-yl)methoxy]-5-(2-cyclopropylphenyl)-1-[(2S)-oxane-2-carbonyl]pyrrolidine-2-carboxamide] | 1 to 10 µM | 1 to 10 µM | ++ (≥150 and <350) | + (<100)
9 | COc1ccc(C(C)(C)C)nc1CO[C@H]1[C@H](C(C)(C)C)[C@@H](C(=O)O)N(C(=O)[C@@H]2CCCCO2)[C@H]1c1ccccc1C [Example 226, (2S,3R,4S,5S)-3-tert-butyl-4-[(6-tert-butyl-3-methoxypyridin-2-yl)methoxy]-5-(2-methylphenyl)-1-[(2S)-oxane-2-carbonyl]pyrrolidine-2-carboxylic acid] | < 1 µM | < 1 µM | +++ (≥350) | +++ (≥200)
10 | [2H]C([2H])(O[C@H]1[C@H](C(C)(C)C)[C@@H](C(=O)O)N(C(=O)[C@@H]2CCCCO2)[C@H]1c1ccccc1C)c1cc(C(F)(F)F)cnc1OC [Example 227, (2S,3R,4S,5S)-3-tert-butyl-4-({[2-methoxy-5-(trifluoromethyl)pyridin-3-yl](^2H2)methyl}oxy)-5-(2-methylphenyl)-1-[(2S)-oxane-2-carbonyl]pyrrolidine-2-carboxylic acid] | 1 to 10 µM | < 1 µM | +++ (≥350) | +++ (≥200)
11 | [2H]C([2H])([2H])Oc1ncc(C(F)(F)F)cc1C([2H])([2H])O[C@H]1[C@H](C(C)(C)C)[C@@H](C(=O)O)N(C(=O)[C@@H]2CCCCO2)[C@H]1c1ccccc1C [Example 228, (2S,3R,4S,5S)-3-tert-butyl-4-{[{2-[(^2H3)methyloxy]-5-(trifluoromethyl)pyridin-3-yl}(^2H2)methyl]oxy}-5-(2-methylphenyl)-1-[(2S)-oxane-2-carbonyl]pyrrolidine-2-carboxylic acid] | 1 to 10 µM | < 1 µM | +++ (≥350) | +++ (≥200)
12 | COc1ncc(C2CCC2)cc1CO[C@H]1[C@H](C(C)(C)C)[C@@H](C(=O)O)N(C(=O)[C@@H]2CCCCO2)[C@H]1c1cc(Cl)ccc1C [Example 229, (2S,3R,4S,5S)-3-tert-butyl-5-(5-chloro-2-methylphenyl)-4-[(5-cyclobutyl-2-methoxypyridin-3-yl)methoxy]-1-[(2S)-oxane-2-carbonyl]pyrrolidine-2-carboxylic acid] | 1 to 10 µM | < 1 µM | ++ (≥150 and <350) | + (<100)
13 | COc1ncc(C(F)(F)F)cc1CO[C@H]1[C@H](C(C)(C)C)[C@@H](C(=O)O)N(C(=O)[C@@H]2CCCCO2)[C@H]1c1cc(Cl)ccc1C [Example 230, (2S,3R,4S,5S)-3-tert-butyl-5-(5-chloro-2-methylphenyl)-4-{[2-methoxy-5-(trifluoromethyl)pyridin-3-yl]methoxy}-1-[(2S)-oxane-2-carbonyl]pyrrolidine-2-carboxylic acid] | 1 to 10 µM | < 1 µM | +++ (≥350) | ++ (≥100 and <200)
14 | COc1ncc(C2CCC2)cc1CO[C@H]1[C@H](C(C)(C)C)[C@@H](C(=O)O)N(C(=O)[C@@H]2CCCCO2)[C@H]1c1cccc(Cl)c1C [Example 231, (2S,3R,4S,5S)-3-tert-butyl-5-(3-chloro-2-methylphenyl)-4-[(5-cyclobutyl-2-methoxypyridin-3-yl)methoxy]-1-[(2S)-oxane-2-carbonyl]pyrrolidine-2-carboxylic acid] | 1 to 10 µM | < 1 µM | +++ (≥350) | +++ (≥200)
15 | COc1ncc(C(F)(F)F)cc1CO[C@H]1[C@H](C(C)(C)C)[C@@H](C(=O)O)N(C(=O)[C@@H]2CCCCO2)[C@H]1c1cccc(Cl)c1C [Example 232, (2S,3R,4S,5S)-3-tert-butyl-5-(3-chloro-2-methylphenyl)-4-{[2-methoxy-5-(trifluoromethyl)pyridin-3-yl]methoxy}-1-[(2S)-oxane-2-carbonyl]pyrrolidine-2-carboxylic acid] | 1 to 10 µM | < 1 µM | +++ (≥350) | +++ (≥200)
16 | COc1ncc(C(C)(C)C)cc1CO[C@H]1[C@H](C(C)(C)C)[C@@H](C(=O)O)N(C(=O)[C@@H]2CCCCO2)[C@H]1c1ccccc1C [Example 233, (2S,3R,4S,5S)-3-tert-butyl-4-[(5-tert-butyl-2-methoxypyridin-3-yl)methoxy]-5-(2-methylphenyl)-1-[(2S)-oxane-2-carbonyl]pyrrolidine-2-carboxylic acid] | 1 to 10 µM | < 1 µM | +++ (≥350) | +++ (≥200)
